Data reported in patent US8697739B2, “Bicyclic acetyl-CoA carboxylase inhibitors and uses thereof” (Novartis AG, priority 2010, dated 2014).

Target: T1, human acetyl-CoA carboxylase 2 (ACC2) (Homo sapiens, UniProt O00763)
T1 construct: The cDNA encoding amino acids 144 to 2458 of human acetyl-CoA carboxylase 2; made in house; host or cells: Sf9 insect cells (baculovirus, pFastBac1)
Test: Acetyl-CoA carboxylase enzyme assay (malonyl-CoA formation by LC/MS/MS)
Format: biochemical
Details: recombinant human ACC2 (aa 144-2458); read-out: IC50 ACC2
Excerpt: The cDNA encoding amino acids 144 to 2458 of human acetyl-CoA carboxylase 2 (ACC2, GenBank Accession #NM_001093) was cloned into the SalI and NotI sites of pFastBac1 (Invitrogen; Carlsbad, Calif.). The resulting plasmid was used to generate a recombinant ACC2 baculovirus that was amplified and titered according to the protocols in the Bac-to-Bac baculovirus expression system manual (Invitrogen). The titered virus was used to infect Sf9 cells grown in Ex-Cell 420 serum-free medium (JRH Biosciences; Lenexa, Kans.). At 48 hours post-infection, the cells were harvested and stored at −80° C. until purification. ACC2 was purified using ammonium sulfate precipitation and anion exchange chromatography.
The enzymatic assay was run as follows: 30 μL of reaction buffer (100 mM HEPES pH 7.5, 20 mM MgCl2, 20 mM potassium citrate, 2 mM DTT) was added to a 384-well microtiter plate followed by 2 μL of the test compound (or 100% DMSO control). ACC2 protein (10 μL of a 50 nM working solution) was added to plate, which was incubated at room temperature for 15 minutes. A 30 μL addition of substrate solution (50 μM acetyl-CoA, 120 μM ATP, 2 mM KHCO3) was used to initiate the reactions which were quenched with 6% acetic acid (40 μL). ACC catalyzed malonyl-CoA formation was detected by LC/MS/MS using a Cohesive Technologies LX Series multiplex LC/MSIMS system configured with four binary pumps (Agilent Technologies; Palo Alto, Calif.), a dual arm autosampler (Leap Technologies; Cary, N.C.), and one Quattro Micro triple quadrupole mass spectrometer (Waters, Milford, Mass.), all run by Aria Software version 1.5 (Cohesive Technologies; Franklin, Mass.). Four samples were injected (20 μL) onto four Phenosphere NEXT C18 30×2 mm 5 μm columns (Phenomenex; Torrance, Calif.), eluted by four separate pumps, running identical gradients, through a column switching manifold with the one outlet fitted to the electrospray (ESI) source. Malonyl-CoA was eluted with 5 mM ammonium acetate, pH 4.5 (Buffer A) and 100% acetonitrile (Buffer B) via a step gradient. Argon was used as the collision gas and the following species were monitored via MRM detection: malonyl-CoA (853.8>346.9), internal standard (A: [^13C3]-malonyl-CoA, 857>350). The lower limit of detection is 0.3 uM for malonyl-CoA in this assay.

T1 sequence (O00763 144-2458): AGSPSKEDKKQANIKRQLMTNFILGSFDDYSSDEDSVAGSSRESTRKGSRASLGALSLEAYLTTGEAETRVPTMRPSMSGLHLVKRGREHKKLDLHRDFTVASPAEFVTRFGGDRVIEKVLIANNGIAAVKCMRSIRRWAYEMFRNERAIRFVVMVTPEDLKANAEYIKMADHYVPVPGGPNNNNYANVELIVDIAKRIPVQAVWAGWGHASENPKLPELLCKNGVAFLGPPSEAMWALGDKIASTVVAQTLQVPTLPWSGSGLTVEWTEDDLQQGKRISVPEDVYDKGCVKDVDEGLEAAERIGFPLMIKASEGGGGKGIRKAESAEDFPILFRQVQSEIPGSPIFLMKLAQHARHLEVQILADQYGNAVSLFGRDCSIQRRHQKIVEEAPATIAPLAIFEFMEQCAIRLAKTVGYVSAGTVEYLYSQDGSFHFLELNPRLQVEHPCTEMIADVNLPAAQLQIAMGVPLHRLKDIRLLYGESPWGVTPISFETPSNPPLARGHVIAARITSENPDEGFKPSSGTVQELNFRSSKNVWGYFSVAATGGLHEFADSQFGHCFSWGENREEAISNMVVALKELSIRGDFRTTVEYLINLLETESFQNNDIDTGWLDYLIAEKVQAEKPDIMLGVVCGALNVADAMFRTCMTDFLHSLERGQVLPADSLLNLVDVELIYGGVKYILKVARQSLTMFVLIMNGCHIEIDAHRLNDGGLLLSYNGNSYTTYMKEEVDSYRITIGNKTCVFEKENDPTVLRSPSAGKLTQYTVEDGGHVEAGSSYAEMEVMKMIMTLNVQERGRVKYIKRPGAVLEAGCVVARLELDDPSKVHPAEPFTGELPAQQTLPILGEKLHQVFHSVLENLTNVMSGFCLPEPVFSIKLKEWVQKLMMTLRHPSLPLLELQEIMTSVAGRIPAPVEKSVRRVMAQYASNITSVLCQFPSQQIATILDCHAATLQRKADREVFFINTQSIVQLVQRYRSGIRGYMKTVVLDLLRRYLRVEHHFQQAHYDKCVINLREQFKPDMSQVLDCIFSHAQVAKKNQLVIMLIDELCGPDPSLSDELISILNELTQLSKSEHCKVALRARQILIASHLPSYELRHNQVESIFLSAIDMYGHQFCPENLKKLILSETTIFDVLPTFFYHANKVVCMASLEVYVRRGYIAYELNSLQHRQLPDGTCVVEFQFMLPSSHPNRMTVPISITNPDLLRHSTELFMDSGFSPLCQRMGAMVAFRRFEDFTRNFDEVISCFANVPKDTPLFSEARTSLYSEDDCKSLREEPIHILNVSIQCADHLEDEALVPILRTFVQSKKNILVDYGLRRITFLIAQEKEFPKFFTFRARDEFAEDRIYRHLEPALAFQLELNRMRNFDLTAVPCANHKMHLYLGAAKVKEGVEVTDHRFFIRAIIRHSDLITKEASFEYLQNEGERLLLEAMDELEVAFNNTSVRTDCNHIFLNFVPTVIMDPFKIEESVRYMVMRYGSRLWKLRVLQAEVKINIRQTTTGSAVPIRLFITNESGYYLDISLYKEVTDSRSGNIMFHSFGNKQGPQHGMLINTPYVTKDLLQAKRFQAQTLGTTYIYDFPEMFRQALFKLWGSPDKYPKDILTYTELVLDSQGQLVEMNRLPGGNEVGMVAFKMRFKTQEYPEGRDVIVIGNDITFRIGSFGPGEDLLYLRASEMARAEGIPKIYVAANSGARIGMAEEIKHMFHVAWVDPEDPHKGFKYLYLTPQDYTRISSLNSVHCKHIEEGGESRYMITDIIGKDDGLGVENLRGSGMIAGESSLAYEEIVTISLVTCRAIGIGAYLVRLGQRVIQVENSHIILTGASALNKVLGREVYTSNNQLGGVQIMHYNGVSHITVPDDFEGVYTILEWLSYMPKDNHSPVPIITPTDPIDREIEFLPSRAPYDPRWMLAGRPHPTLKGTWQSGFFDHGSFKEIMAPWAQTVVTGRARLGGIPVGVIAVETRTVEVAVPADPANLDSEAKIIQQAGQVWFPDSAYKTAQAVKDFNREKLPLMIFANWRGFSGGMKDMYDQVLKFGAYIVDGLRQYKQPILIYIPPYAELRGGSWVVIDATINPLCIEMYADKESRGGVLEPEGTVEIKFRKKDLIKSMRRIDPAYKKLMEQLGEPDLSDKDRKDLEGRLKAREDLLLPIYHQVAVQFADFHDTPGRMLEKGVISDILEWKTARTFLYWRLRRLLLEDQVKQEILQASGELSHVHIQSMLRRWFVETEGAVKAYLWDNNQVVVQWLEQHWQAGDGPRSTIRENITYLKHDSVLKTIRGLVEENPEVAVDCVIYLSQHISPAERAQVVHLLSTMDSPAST

| SMILES | IC50 |
| --- | --- |
| C[C@@H](NC(=O)[C@H]1CC[C@H](NS(=O)(=O)c2ccc3[nH]c([C@@H]4CCCN4)nc3c2)CC1)c1ccc(F)cc1 [Example 3, (1r,4R)—N—((R)-1-(4-fluorophenyl)ethyl)-4-(2-((S)-pyrrolidin-2-yl)-1H-benzo[d]imidazole-5-sulfonamido)cyclohexanecarboxamide] | 507 nM |
| Cc1nc2cc(S(=O)(=O)N[C@H]3CC[C@H](C(=O)N[C@H](C)c4ccc(F)cc4)CC3)ccc2n1C [Example 5, (1r,4R)-4-(1,2-dimethyl-1H-benzo[d]imidazole-5-sulfonamido)-N—((R)-1-(4-fluorophenyl)ethyl)cyclohexanecarboxamide] | 244 nM |
| C[C@@H](NC(=O)[C@H]1CC[C@H](NS(=O)(=O)c2ccc3nc(C4CCOCC4)[nH]c3c2)CC1)c1ccc(F)cc1 [Example 6, (1r,4R)—N—((R)-1-(4-fluorophenyl)ethyl)-4-(2-(tetrahydro-2H-pyran-4-yl)-1H-benzo[d]imidazole-6-sulfonamido)cyclohexanecarboxamide] | 156 nM |
| CC(C)N(C)C(=O)[C@H]1CC[C@H](NS(=O)(=O)c2ccc3[nH]c(Nc4ccccc4)nc3c2)CC1 [Example 7, (1r,4r)-N-isopropyl-N-methyl-4-(2-(phenylamino)-1H-benzo[d]imidazole-5-sulfonamido)cyclohexanecarboxamide] | 71 nM |
| CC(=O)Nc1ccc(-c2nc3ccc(S(=O)(=O)N[C@H]4CC[C@H](C(=O)OC(C)C)CC4)cc3[nH]2)cc1 [Example 8, (1r,4r)-isopropyl 4-(2-(4-acetamidophenyl)-1H-benzo[d]imidazole-5-sulfonamido)cyclohexanecarboxylate] | 45 nM |
| CN1CCN(c2ccc(Nc3nc4cc(S(=O)(=O)N[C@H]5CC[C@H](c6nnc(C(C)(C)C)o6)CC5)ccc4[nH]3)cc2)CC1 [Example 9, N-((1r,4r)-4-(5-tert-butyl-1,3,4-oxadiazol-2-yl)cyclohexyl)-2-(4-(4-methylpiperazin-1-yl)phenylamino)-1H-benzo[d]imidazole-5-sulfonamide] | 47 nM |
| CN1CCN(c2ccc(-c3nc4cc(S(=O)(=O)N[C@H]5CC[C@H](c6nnc(C(C)(C)C)o6)CC5)ccc4[nH]3)cc2)CC1 [Example 10, N-((1r,4r)-4-(5-tert-butyl-1,3,4-oxadiazol-2-yl)cyclohexyl)-2-(4-(4-methylpiperazin-1-yl)phenyl)-1H-benzo[d]imidazole-5-sulfonamide] | 115 nM |
| C[C@@H](NC(=O)[C@H]1CC[C@H](NS(=O)(=O)c2ccc3nc(-c4ccccc4)oc3c2)CC1)c1ccc(F)cc1 [Example 11, N—((R)-1-(4-fluorophenyl)ethyl)-4-(2-phenylbenzo[d]oxazole-6-sulfonamido)cyclohexanecarboxamide] | 48 nM |
| C[C@@H](NC(=O)[C@H]1CC[C@H](NS(=O)(=O)c2ccc3c(ccn3C)c2)CC1)c1ccc(F)cc1 [Example 12, (1r,4R)—N—((R)-1-(4-fluorophenyl)ethyl)-4-(1-methyl-1H-indole-5-sulfonamido)cyclohexanecarboxamide] | 55 nM |
| C[C@@H](NC(=O)[C@H]1CC[C@H](NS(=O)(=O)c2ccc3[nH]c(-c4ccccc4)cc3c2)CC1)c1ccccc1 [Example 13, (1r,4R)-4-(2-phenyl-1H-indole-5-sulfonamido)-N—((R)-1-phenylethyl)cyclohexanecarboxamide] | 65 nM |
| C[C@@H](NC(=O)[C@H]1CC[C@H](NS(=O)(=O)c2ccc3[nH]ccc3c2)CC1)c1ccc(F)cc1 [Example 16, (1r,4R)—N—((R)-1-(4-fluorophenyl)ethyl)-4-(1H-indole-5-sulfonamido)cyclohexanecarboxamide] | 51 nM |
| Cc1cn(C)c2ncc(S(=O)(=O)N[C@H]3CC[C@H](C(=O)N[C@H](C)c4ccc(F)cc4)CC3)cc12 [Example 17] | 65 nM |
| C[C@@H](NC(=O)[C@H]1CC[C@H](NS(=O)(=O)c2ccc3cc(-c4ccccc4)[nH]c3c2)CC1)c1ccccn1 [Example 19, (1r,4R)-4-(2-phenyl-1H-indole-6-sulfonamido)-N—((R)-1-(pyridin-2-yl)ethyl)cyclohexanecarboxamide] | 56 nM |
| CC(C)[C@H]1COCCN1C(=O)[C@H]1CC[C@H](NS(=O)(=O)c2ccc3cc(C4CC4)n(C)c3c2)CC1 [Example 22, 2-cyclopropyl-N-((1S,4r)-4-((S)-3-isopropylmorpholine-4-carbonyl)cyclohexyl)-1-methyl-1H-indole-6-sulfonamide] | 70 nM |
| Cn1c(C2CC2)c(C#N)c2ccc(S(=O)(=O)N[C@H]3CC[C@H](C(=O)N4CCOCC4)CC3)cc21 [Example 23, 3-cyano-2-cyclopropyl-1-methyl-N-((1r,4r)-4-(morpholine-4-carbonyl)cyclohexyl)-1H-indole-6-sulfonamide] | 150 nM |
| Cn1c(C2CC2)cc2ccc(S(=O)(=O)N[C@H]3CC[C@](C)(C(=O)N4CCOCC4)CC3)cc21 [Example 24, 2-cyclopropyl-1-methyl-N-((1r,4r)-4-methyl-4-(morpholine-4-carbonyl)cyclohexyl)-1H-indole-6-sulfonamide] | 230 nM |

These reach a lower IC50. Values come first.

| IC50 | SMILES |
| --- | --- |
| 13 nM | C[C@@H](NC(=O)[C@H]1CC[C@H](NS(=O)(=O)c2ccc3[nH]c(-c4ccccc4)nc3c2)CC1)c1ccccc1 [Example 1, (1r,4R)-4-(2-phenyl-1H-benzo[d]imidazole-5-sulfonamido)-N—((R)-1-phenylethyl)cyclohexanecarboxamide] |
| 19 nM | CCOC(=O)c1cccc(-c2nc3ccc(S(=O)(=O)N[C@H]4CC[C@H](C(=O)N[C@H](C)c5ccccc5)CC4)cc3[nH]2)c1 [Example 2, ethyl 3-(6-(N-((1R,4r)-4-((R)-1-phenylethylcarbamoyl)cyclohexyl)sulfamoyl)-1H-benzo[d]imidazol-2-yl)benzoate] |
| 13 nM | C[C@@H](NC(=O)[C@H]1CC[C@H](NS(=O)(=O)c2ccc3c(c2)nc(-c2ccccc2)n3C)CC1)c1ccc(F)cc1 [Example 4, (1r,4R)—N—((R)-1-(4-fluorophenyl)ethyl)-4-(1-methyl-2-phenyl-1H-benzo[d]imidazole-5-sulfonamido)cyclohexanecarboxamide] |
| 10 nM | C[C@@H](NC(=O)[C@H]1CC[C@H](NS(=O)(=O)c2ccc3c(c2)cc(-c2ccccc2)n3C)CC1)c1ccc(F)cc1 [Example 14, (1r,4R)—N—((R)-1-(4-fluorophenyl)ethyl)-4-(1-methyl-2-phenyl-1H-indole-5-sulfonamido)cyclohexanecarboxamide] |
| < 10 nM | Cn1c(-c2ccccc2)cc2cc(S(=O)(=O)N[C@H]3CC[C@H](C(=O)N[C@@H](c4ccccc4)C(C)(C)O)CC3)ccc21 [Example 15, (1r,4S)—N—((S)-2-hydroxy-2-methyl-1-phenylpropyl)-4-(1-methyl-2-phenyl-1H-indole-5-sulfonamido)cyclohexanecarboxamide] |
| 11 nM | C[C@@H](NC(=O)[C@H]1CC[C@H](NS(=O)(=O)c2ccc3cc(-c4ccccc4)[nH]c3c2)CC1)c1ccc(F)cc1 [Example 18, (1r,4R)—N—((R)-1-(4-fluorophenyl)ethyl)-4-(2-phenyl-1H-indole-6-sulfonamido)cyclohexanecarboxamide] |
| < 10 nM | C[C@@H](NC(=O)[C@H]1CC[C@H](NS(=O)(=O)c2ccc3cc(-c4ccccc4)n(C)c3c2)CC1)c1ccc(F)cc1 [Example 20, (1r,4R)—N—((R)-1-(4-fluorophenyl)ethyl)-4-(1-methyl-2-phenyl-1H-indole-6-sulfonamido)cyclohexanecarboxamide] |
| < 10 nM | Cn1c(-c2ccccc2)c(Cl)c2ccc(S(=O)(=O)N[C@H]3CC[C@H](C(=O)N4CCN[C@H](C(F)(F)F)C4)CC3)cc21 [Example 21, 3-chloro-1-methyl-2-phenyl-N-((1S,4r)-4-((S)-3-(trifluoromethyl)piperazine-1-carbonyl)cyclohexyl)-1H-indole-6-sulfonamide] |
| 20 nM | C[C@@H](NC(=O)[C@H]1CC[C@H](NS(=O)(=O)c2ccc3c(Cl)c[nH]c3c2)CC1)c1ccc(F)cc1 [Example 26, (1r,4R)-4-(3-chloro-1H-indole-6-sulfonamido)-N—((R)-1-(4-fluorophenyl)ethyl)cyclohexanecarboxamide] |
| < 10 nM | CC(C)[C@H](N)C(=O)OCc1ccc(-c2cc3ccc(S(=O)(=O)N[C@H]4CC[C@H](C(=O)N[C@H](C)c5ccc(F)cc5)CC4)cc3[nH]2)cc1 [Example 27, (S)-4-(6-(N-((1R,4r)-4-((R)-1-(4-fluorophenyl)ethylcarbamoyl)cyclohexyl)sulfamoyl)-1H-indol-2-yl)benzyl 2-amino-3-methylbutanoate] |
